Common to all, as to assay type: cell-based, mice
The subject of one experiment is MRL/lpr BMMφ. The experiment can be described thus: mTOR localization by confocal imaging. To be noted: MRL/lpr BMMφs; Torin1 250 ng/mL for 2 hrs. As to the method:
FIGS. 5A-5B. Localization of mTOR is defective in MRL/lpr BMMφ. (5A-5B). Unstimulated BMMφs cultured±Torin1 (250 ng/mL) for 2 hrs were examined for mTOR localization with CD11b by confocal imaging. Colocalization of mTOR to membrane (CD11b) is quantitated by mander's coefficient (5A). Total cellular mTOR levels were quantitated using ImageJ software (5B); 3 exp, 2-3 mice, 10-29 cells.
BMMφs were cultured with IgG-ICs in R10 media at 37° C. For measuring lipid rafts fluorescently labeled CTx was added to the culture 30 min prior to fixation. For the nuclear stain, hoechst was added 15 min prior to fixation. Mφs were fixed with 2% paraformaldehyde, then incubated at 4° C. for 15 min. Cells were blocked in 2.4G2 for 30 min at 4° C. in FACs media (PBS with 2% FBS, 0.02% NaN3), washed, and stained with primary and corresponding secondary antibodies in permeabilization buffer (PBS with 0.05% Saponin and 0.5% BSA) for 30 min at 4° C. Mφs were imaged in FACs media or resuspended in FluorSave™ and imaged. […] Data were analyzed using ImageJ. Colocalization was measured by calculating the Mander's coefficient (colocalized pixels/total fluorescent pixels) in all the cells imaged.

The subject of experiment [1] is MRL/lpr Mφs. In words: Lysosome acidification after IgG-IC stimulation, ratiometric flow cytometry (relative phagosomal pH). The settings on record: MRL/lpr Mφs/BMMFs stimulated with IgG-ICs; inhibitor added 2 hours prior and left on. As to the method: (§1) FIGS. 6A-6B. […] (6A). BMMφs from B6 and MRL/lpr mice were stimulated with IgG-ICs±TGX-221 (p110β), IC87114 (p110δ), or Torin1 (mTorC1/C2), and ratiometric flow cytometry was used to quantify the relative phagosomal pH. (6B). Cells were pre-treated with drugs (for 2 hr) and given IgG-ICs. IgG-ICs were removed after 2 hr. Cells remained on drug for the duration of the experiment. At 72 hrs, levels of surface bound IgG-ICs were analyzed by flow cytometry. All values are normalized to B6 untreated. n=3-7.
FIGS. 9A-9C. […] (9A). BMMφs (left panel) or splenic CD11b+ myeloid cells from B6 and MRL/lpr (right panel) were stimulated with IgG-ICs±SM-PEG (1, 2) (5 μg/mL) or control SM-PEG […] (5 μg/mL), and ratiometric flow cytometry was used to quantify the relative phagosomal pH. For internal control, cells were treated with concanamycin A (CMA) 2 hrs prior to IgG-ICs treatment (T0+CMA) to inhibit lysosomal pH change. 2-7 mice, >2 experiments. (9B). BMMφs (left panel) or splenic CD11b+ myeloid cells (right panel) were stimulated with SM-PEG (1, 2) or control SM-PEG (2, 1), or left unstimulated for 30 min or 60 min. At each time points, fixed cells were analyzed for surface bound nucleosomes. 2 mice, 2 experiments. (9C). BMMφs were stimulated with IgG-ICs±SM-PEG(1, 2) (5 μg/mL) for 1 hr, then pAKT (Ser/Thr) and pSHIP1 levels were assessed by flow cytometry. Phospho-proteins were normalized to isotype controls and the levels of total protein. 4 mice, 4 experiments.
The acidotropic dye LysoSensor™ Yellow/Blue can be used to quantify the pH or lysosomes using ratiometric imaging. […] For this adaptation, we loaded cells with an acidotropic dye and concurrently analyzed cells by microscopy (with pH standards) and flow cytometry. […]
Cells were incubated (37° C., 5% CO2) for 2 hours prior to the addition of 40 μL of IgG-ICs in R10 media (as above). […] At each time points, LysoSensor™ (2 mg/mL) was added and incubated for 15 min, then, analyzed by flow cytometry. […] Relative pH was quantified by ratioing the MFIs from the emission channels (450/20 nm, 585/42 nm) (normalized to concanamycin A control). […]
On the technique in general: In flow cytometry, cells or beads pass a laser one at a time.

The subject of experiment [2] is MRL/lpr Mφs. In words: Recycling of IgG-IC flow cytometry (surface bound IgG-ICs). The settings on record: pre-treated with drugs 2 hr, surface IgG-ICs at 72 hrs. As to the method: as §1
Cells (0.25×10^6) were rested in R10 media for 1 hr at 37° C. prior to the addition of any reagents. IgG-ICs were added, incubated for given duration, and removed at each time points. […]
BMMφs were incubated (37° C., 5% CO2) with 40 μL Alexa Fluor® 488-labeled IgG-ICs in R10 media (as above). To quantify surface bound ICs at 0 hours, phagocytic uptake was impaired by culturing with IgG-ICs on ice for 2 hours. […] One sample was incubated with an anti-Alexa Fluor® 488 antibody (quenches Alexa Fluor® 488 fluorescence), while the other sample was left in FACS media for 30 min on ice. […] Surface bound IgG-ICs were calculated by subtracting the MFI of the quenched sample (intracellular IgG-ICs) from the MFI of the unquenched sample (total IgG-ICs). […]

For the next experiment, the system named is B6 MFs. In words: Recycling of IgG-ICs in B6 MFs treated with concanamycin A. As to the method: BMMφs were incubated (37° C., 5% CO2) with 40 μL Alexa Fluor® 488-labeled IgG-ICs in R10 media (as above). To quantify surface bound ICs at 0 hours, phagocytic uptake was impaired by culturing with IgG-ICs on ice for 2 hours. This was sufficient to allow the ICs to bind to the surface of the cell but not be phagocytosed. For all other time points, cells were incubated (37° C., 5% CO2) for 2 hours, then media was replaced to remove all unbound ICs. At indicated time points, cells were blocked in 2.4G2 for 30 min on ice in FACS media, washed, and split into 2 samples. One sample was incubated with an anti-Alexa Fluor® 488 antibody (quenches Alexa Fluor® 488 fluorescence), while the other sample was left in FACS media for 30 min on ice. Both samples were washed and fixed with 2% paraformaldehyde and incubated at 4° C. for 15 min. Surface bound IgG-ICs were calculated by subtracting the MFI of the quenched sample (intracellular IgG-ICs) from the MFI of the unquenched sample (total IgG-ICs). Values were normalized to B6 0 hr.

“Also recorded” adds a separate entry of the source.

As to `CCC(=O)N1CCN(c2ccc(-n3c(=O)ccc4cnc5ccc(-c6cnc7ccccc7c6)cc5c43)cc2C(F)(F)F)CC1` [Torin1], in the experiment on MRL/lpr BMMφ, the mTOR localization entry is “restored mTOR to a cytosolic location”. Further, the lysosome acidification entry with MRL/lpr Mφs [1] is reported as “restored lysosome acidification to levels comparable to B6; also recorded: restored lysosomal acidification”.

With `Cc1cc(C(C)Nc2ccccc2)c2nc(N3CCOCC3)cc(=O)n2c1` (stereo not shown) [TGX-221], in the experiment on MRL/lpr Mφs [2], the “recycling of IgG-ICs (surface bound IgG-ICs)” value is given as “prevented the recycling of IgG-ICs”. The lysosome acidification entry with MRL/lpr Mφs [1] is “restored lysosome acidification to levels comparable to B6; also recorded: restored lysosomal acidification”. Regarding `Cc1ccccc1-n1c(Cn2cnc3c(N)ncnc32)nc2cccc(C)c2c1=O` [IC87114], the “recycling of IgG-ICs (surface bound IgG-ICs)” value with MRL/lpr Mφs [2] was “prevented the recycling of IgG-ICs”. For the same molecule, in the experiment on MRL/lpr Mφs [1], the lysosome acidification entry is reported as “restored lysosome acidification to levels comparable to B6; also recorded: restored lysosomal acidification”. With `C/C=C/[C@H]1O[C@@](O)([C@@H](C)[C@H](O)[C@H](C)[C@H]2OC(=O)/C(OC)=C/C(C)=C/[C@@H](C)[C@@H](O)[C@@H](CC)[C@@H](O)[C@H](C)C/C(C)=C/C=C/[C@@H]2OC)C[C@@H](O[C@H]2C[C@@H](O)[C@H](OC(N)=O)[C@@H](C)O2)[C@@H]1C` [concanamycin A], the “recycling of IgG-ICs” value in the experiment with B6 MFs is given as “promotes the recycling of IgG-ICs”.

These data come from patent US20250109216A1, “COMPOSITIONS AND METHODS FOR CROSSLINKING FC RECEPTORS” (The University of North Carolina at Chapel Hill, priority 2016, published 2025).
